In test [1] the test system is Eukaryotic elongation factor 2 kinase (Homo sapiens), O00418 [H23R]. As to the kind of experiment: Inhibition of recombinant human eEF-2K H23R mutant (2 to end residues) assessed as residual activity at 1 uM using RKKFGESEKTKTKEFL as substrate at 40 mins in presence of [gamma-33ATP] by scintillation counting based radiometry assay relative to control.
Test [2] concerns the target STE20-like serine/threonine-protein kinase (Homo sapiens) (UniProt Q9H2G2). As to the kind of experiment: Inhibition of human SLK (1 to 373 residues) assessed as residual activity at 1 uM using RLGRDKYKTLRQIRQ as substrate measured after 40 mins in presence of [gamma33P]ATP by scintillation counting method relative to control.
Test [3] deals with Dual specificity protein kinase TTK (Homo sapiens), P33981 [S389A]. As to the kind of experiment: Inhibition of recombinant full-length human TTK S389A mutant at 1 uM assessed as residual activity at 1 uM using MBP as substrate measured after 40 mins in presence of [gamma33P]ATP by scintillation counting method relative to control.
Dual specificity protein kinase TTK (Homo sapiens), P33981 [S389A], sequence (P33981 whole entry S389A, the tested form may be a part): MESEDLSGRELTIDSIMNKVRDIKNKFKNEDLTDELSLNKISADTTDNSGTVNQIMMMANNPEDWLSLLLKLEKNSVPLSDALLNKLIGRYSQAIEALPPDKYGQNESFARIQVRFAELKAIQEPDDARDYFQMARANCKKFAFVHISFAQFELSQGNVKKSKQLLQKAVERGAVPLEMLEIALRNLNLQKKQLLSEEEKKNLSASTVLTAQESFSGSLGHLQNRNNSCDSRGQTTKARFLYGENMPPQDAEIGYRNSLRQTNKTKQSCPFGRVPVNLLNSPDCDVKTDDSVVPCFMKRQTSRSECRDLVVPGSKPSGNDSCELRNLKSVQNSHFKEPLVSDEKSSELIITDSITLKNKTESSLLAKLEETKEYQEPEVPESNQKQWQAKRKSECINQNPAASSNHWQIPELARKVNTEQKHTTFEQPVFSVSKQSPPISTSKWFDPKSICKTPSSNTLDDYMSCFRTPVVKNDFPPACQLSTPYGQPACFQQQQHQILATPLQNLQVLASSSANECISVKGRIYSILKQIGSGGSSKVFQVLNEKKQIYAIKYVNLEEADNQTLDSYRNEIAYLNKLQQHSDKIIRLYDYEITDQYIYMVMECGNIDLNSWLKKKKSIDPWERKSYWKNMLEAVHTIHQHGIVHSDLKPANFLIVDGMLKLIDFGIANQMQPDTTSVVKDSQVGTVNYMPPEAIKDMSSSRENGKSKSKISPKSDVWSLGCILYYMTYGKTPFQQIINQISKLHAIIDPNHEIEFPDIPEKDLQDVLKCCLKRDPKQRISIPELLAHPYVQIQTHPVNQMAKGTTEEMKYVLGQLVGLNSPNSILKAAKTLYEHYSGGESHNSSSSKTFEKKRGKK
In test [4] the target is Receptor-interacting serine/threonine-protein kinase 2 (Homo sapiens) (UniProt O43353). As to the kind of experiment: Inhibition of recombinant human RIPK2 (1 to 299 residues) assessed as residual activity at 1 uM using myelin basic protein as substrate measured after 120 mins in presence of [gamma33P]ATP by scintillation counting method relative to control.
For test [5], the target named is Serine/threonine-protein kinase 38-like (Homo sapiens) (UniProt Q9Y2H1). The experiment in a line: Inhibition of recombinant human NDR2 (83 to end residues) assessed as residual activity at 1 uM using RSRSRSRSRSRSRSR as substrate measured after 40 mins in presence of [gamma33P]ATP by scintillation counting method relative to control.
Serine/threonine-protein kinase 38-like (Homo sapiens), sequence (Q9Y2H1 2-464 limits assumed): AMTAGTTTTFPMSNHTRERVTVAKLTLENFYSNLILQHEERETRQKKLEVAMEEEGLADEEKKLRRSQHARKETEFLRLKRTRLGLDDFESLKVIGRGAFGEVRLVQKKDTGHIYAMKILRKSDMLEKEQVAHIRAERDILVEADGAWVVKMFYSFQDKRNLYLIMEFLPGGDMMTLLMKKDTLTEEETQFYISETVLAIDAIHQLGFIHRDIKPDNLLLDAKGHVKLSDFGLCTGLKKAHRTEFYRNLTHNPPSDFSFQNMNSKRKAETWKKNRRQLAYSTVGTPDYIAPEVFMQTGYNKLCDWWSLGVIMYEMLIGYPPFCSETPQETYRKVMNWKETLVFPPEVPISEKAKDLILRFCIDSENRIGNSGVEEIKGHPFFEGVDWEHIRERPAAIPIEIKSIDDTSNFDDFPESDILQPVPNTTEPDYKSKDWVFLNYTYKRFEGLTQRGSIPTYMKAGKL
The target in test [6] is LIM domain kinase 1 (Homo sapiens) (UniProt P53667). As to the kind of experiment: Inhibition of recombinant human LIMK1 (285 to 638 residues) assessed as residual activity at 1 uM using cofilin as substrate after 40 mins in presence of [gamma-33ATP] by scintillation counting based radiometry assay relative to control.
For test [7], the target named is Tyrosine-protein kinase Fer (Homo sapiens) (UniProt P16591). As to the kind of experiment: Inhibition of recombinant human FER (541 to end residues) assessed as residual activity at 1 uM using KKKSPGEYVNIEFG as substrate at 40 mins in presence of [gamma-33ATP] by scintillation counting based radiometry assay relative to control.
The subject of test [8] is Serine/threonine-protein kinase TAO3 (Homo sapiens), Q9H2K8 [UNDEFINED MUTATION]. As to the kind of experiment: Inhibition of human TAO3 (1 to 411 residues) assessed as residual activity at 1 uM using myelin basic protein as substrate measured after 40 mins in presence of [gamma33P]ATP by scintillation counting method relative to control.
Test [9] deals with Mitogen-activated protein kinase kinase kinase 7 (Homo sapiens) (UniProt O43318). As to the kind of experiment: Inhibition of human TAK1 (1 to 303 residues) assessed as residual activity at 1 uM using casein as substrate measured after 40 mins in presence of [gamma33P]ATP by scintillation counting method relative to control.
Test [10] addresses Cyclin-dependent kinase-like 2 (Homo sapiens) (UniProt Q92772). As to the kind of experiment: Inhibition of recombinant full length human CDKL2 assessed as residual activity at 1 uM in presence of [gamma-33ATP] by scintillation counting based radiometry assay relative to control.
Test [11] deals with Wee1-like protein kinase 2 (Homo sapiens) (UniProt P0C1S8). As to the kind of experiment: Inhibition of recombinant full-length human WEE1b at 1 uM assessed as residual activity at 1 uM using LSNLYHQGKFLQTFCGSPLYRRR as substrate measured after 120 mins in presence of [gamma33P]ATP by scintillation counting method relative to control.
Test [12] deals with Mitogen-activated protein kinase 13 (Homo sapiens) (UniProt O15264). As to the kind of experiment: Inhibition of recombinant human full length SAPK4 assessed as residual activity at 1 uM using myelin basic protein as substrate measured after 40 mins in presence of [gamma33P]ATP by scintillation counting method relative to control.
In test [13] the target is Tyrosine-protein kinase receptor TYRO3 (Homo sapiens) (UniProt Q06418). As to the kind of experiment: Inhibition of recombinant human RSE (451 to end residues) assessed as residual activity at 1 uM using KVEKIGEGTYGVVYK as substrate measured after 40 mins in presence of [gamma33P]ATP by scintillation counting method relative to control.
Tyrosine-protein kinase receptor TYRO3 (Homo sapiens), sequence (Q06418 whole entry, the tested form may be a part): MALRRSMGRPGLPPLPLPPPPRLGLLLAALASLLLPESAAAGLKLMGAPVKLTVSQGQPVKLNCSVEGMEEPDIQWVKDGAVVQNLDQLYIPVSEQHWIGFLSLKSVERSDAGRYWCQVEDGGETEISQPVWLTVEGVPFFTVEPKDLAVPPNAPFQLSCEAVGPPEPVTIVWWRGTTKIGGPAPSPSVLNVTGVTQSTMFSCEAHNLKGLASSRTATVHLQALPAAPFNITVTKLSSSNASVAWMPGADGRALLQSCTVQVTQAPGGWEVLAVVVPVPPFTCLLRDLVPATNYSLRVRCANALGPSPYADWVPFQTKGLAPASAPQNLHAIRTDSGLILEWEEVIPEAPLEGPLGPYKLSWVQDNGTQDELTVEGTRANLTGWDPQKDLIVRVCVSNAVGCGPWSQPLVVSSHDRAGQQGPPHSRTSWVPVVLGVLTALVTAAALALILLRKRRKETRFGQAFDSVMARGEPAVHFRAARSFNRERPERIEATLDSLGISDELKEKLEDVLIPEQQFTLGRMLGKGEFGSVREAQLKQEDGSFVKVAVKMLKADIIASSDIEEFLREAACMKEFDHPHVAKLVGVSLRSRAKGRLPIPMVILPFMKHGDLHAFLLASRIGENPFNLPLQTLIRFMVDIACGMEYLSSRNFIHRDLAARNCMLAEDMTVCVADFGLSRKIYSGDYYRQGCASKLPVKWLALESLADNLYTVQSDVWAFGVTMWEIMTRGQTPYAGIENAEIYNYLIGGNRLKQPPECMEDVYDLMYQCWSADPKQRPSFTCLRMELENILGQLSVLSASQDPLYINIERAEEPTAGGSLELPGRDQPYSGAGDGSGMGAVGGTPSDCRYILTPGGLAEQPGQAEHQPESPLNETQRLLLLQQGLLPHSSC
In test [14] the target is Serine/threonine-protein kinase Nek1 (Homo sapiens) (UniProt Q96PY6). As to the kind of experiment: Inhibition of recombinant human NEK1 (1 to 505 residues) assessed as residual activity at 1 uM using RLGRDKYKTLRQI as substrate measured after 40 mins in presence of [gamma33P]ATP by scintillation counting based radiometry assay relative to control.
Test [15] addresses Serine/threonine-protein kinase PLK3 (Homo sapiens) (UniProt Q9H4B4). As to the kind of experiment: Inhibition of recombinant human Plk3 (19 to 301 residues) assessed as residual activity at 1 uM using casein as substrate measured after 40 mins in presence of [gamma33P]ATP by scintillation counting method relative to control.
The target of test [16] is Casein kinase II subunit alpha (Homo sapiens) (UniProt P68400). The experiment in a line: Inhibition of recombinant full length human CK2alpha1 assessed as residual activity at 1 uM using RRRDDDSDDD as substrate incubated 40 mins in presence of [gamma-33ATP] by scintillation counting based radiometry assay relative to control.
Test [17] concerns the target Serine/threonine-protein kinase MRCK beta (Homo sapiens) (UniProt Q9Y5S2). The experiment in a line: Inhibition of recombinant human MRCKbeta (1 to 473 residues) assessed as residual activity at 1 uM using KKRNRTLTV as substrate measured after 40 mins in presence of [gamma33P]ATP by scintillation counting method relative to control.
Test [18] concerns the target Mitogen-activated protein kinase kinase kinase kinase 3 (Homo sapiens) (UniProt Q8IVH8). The experiment in a line: Inhibition of recombinant human MAP4K3 (1 to 291 residues) assessed as residual activity at 1 uM using RLGRDKYKTLRQIRQ as substrate incubated for 40 mins in presence of [gamma-33ATP by scintillation counting based radiometry assay relative to control.
Test [19] addresses Serine/threonine-protein kinase DCLK3 (Homo sapiens) (UniProt Q9C098). The experiment in a line: Inhibition of recombinant human DCAMKL3 (345 to end residues) assessed as residual activity at 1 uM using KKLNRTLSFAEPG as substrate at 40 mins in presence of [gamma-33ATP] by scintillation counting based radiometry assay relative to control.
In test [20] the target is Leukocyte tyrosine kinase receptor (Homo sapiens) (UniProt P29376). The experiment in a line: Inhibition of recombinant human LTK (450 to end residues) assessed as residual activity at 1 uM using GEEPLYWSFPAKKK as substrate after 40 mins in presence of [gamma-33ATP] by scintillation counting based radiometry assay relative to control.
Leukocyte tyrosine kinase receptor (Homo sapiens), sequence (P29376 whole entry): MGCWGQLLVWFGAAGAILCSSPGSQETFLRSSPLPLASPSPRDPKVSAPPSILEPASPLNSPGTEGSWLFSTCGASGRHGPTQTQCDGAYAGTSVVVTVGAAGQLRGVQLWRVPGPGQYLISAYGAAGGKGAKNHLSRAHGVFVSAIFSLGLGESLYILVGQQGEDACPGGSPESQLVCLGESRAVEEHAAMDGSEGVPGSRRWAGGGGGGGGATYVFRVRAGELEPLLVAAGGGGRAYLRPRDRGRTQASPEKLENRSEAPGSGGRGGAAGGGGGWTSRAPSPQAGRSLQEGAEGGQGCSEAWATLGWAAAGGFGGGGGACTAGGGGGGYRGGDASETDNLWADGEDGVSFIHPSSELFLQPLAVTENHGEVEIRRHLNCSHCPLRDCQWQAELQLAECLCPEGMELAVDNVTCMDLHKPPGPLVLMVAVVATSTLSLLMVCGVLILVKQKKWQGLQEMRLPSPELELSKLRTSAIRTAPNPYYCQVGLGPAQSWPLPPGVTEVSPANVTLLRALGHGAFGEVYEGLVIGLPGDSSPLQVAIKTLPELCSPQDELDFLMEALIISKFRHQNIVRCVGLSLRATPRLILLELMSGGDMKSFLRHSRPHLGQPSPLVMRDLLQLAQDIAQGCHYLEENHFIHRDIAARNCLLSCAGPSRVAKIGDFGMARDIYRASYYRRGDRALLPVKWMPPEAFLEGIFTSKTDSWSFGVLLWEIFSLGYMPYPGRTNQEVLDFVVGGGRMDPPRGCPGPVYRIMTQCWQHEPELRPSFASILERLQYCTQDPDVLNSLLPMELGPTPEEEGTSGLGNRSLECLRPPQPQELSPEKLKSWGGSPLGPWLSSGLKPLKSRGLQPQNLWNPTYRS
Test [21] addresses Aurora kinase C (Homo sapiens) (UniProt Q9UQB9). The experiment in a line: Inhibition of recombinant human Aurora C (35 to end residues) assessed as residual activity at 1 uM using AKRRRLSSLRA as substrate incubated for 40 mins in presence of [gamma-33ATP] by scintillation counting based radiometry assay relative to control.

Serine/threonine-protein kinase DCLK3 (Homo sapiens), sequence (Q9C098 whole entry): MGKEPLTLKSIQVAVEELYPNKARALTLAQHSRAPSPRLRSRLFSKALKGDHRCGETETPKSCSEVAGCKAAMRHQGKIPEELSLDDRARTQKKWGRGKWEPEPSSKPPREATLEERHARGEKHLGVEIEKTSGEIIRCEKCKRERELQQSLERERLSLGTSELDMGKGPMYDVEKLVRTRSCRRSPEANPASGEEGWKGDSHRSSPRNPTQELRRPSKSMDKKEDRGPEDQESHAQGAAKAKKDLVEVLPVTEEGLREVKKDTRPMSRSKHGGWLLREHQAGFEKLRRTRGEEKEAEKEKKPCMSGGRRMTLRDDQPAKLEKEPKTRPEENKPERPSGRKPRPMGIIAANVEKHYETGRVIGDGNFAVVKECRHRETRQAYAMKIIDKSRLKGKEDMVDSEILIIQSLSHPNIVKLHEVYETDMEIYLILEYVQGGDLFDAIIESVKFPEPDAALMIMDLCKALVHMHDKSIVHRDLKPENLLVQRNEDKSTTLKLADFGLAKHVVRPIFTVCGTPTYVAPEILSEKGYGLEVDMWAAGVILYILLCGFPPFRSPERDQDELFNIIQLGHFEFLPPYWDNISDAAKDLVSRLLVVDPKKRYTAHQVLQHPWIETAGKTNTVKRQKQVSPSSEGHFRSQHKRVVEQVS
Serine/threonine-protein kinase TAO3 (Homo sapiens), Q9H2K8 [UNDEFINED MUTATION], sequence (Q9H2K8 whole entry, looked up, stated change not applied, the tested form may be a part): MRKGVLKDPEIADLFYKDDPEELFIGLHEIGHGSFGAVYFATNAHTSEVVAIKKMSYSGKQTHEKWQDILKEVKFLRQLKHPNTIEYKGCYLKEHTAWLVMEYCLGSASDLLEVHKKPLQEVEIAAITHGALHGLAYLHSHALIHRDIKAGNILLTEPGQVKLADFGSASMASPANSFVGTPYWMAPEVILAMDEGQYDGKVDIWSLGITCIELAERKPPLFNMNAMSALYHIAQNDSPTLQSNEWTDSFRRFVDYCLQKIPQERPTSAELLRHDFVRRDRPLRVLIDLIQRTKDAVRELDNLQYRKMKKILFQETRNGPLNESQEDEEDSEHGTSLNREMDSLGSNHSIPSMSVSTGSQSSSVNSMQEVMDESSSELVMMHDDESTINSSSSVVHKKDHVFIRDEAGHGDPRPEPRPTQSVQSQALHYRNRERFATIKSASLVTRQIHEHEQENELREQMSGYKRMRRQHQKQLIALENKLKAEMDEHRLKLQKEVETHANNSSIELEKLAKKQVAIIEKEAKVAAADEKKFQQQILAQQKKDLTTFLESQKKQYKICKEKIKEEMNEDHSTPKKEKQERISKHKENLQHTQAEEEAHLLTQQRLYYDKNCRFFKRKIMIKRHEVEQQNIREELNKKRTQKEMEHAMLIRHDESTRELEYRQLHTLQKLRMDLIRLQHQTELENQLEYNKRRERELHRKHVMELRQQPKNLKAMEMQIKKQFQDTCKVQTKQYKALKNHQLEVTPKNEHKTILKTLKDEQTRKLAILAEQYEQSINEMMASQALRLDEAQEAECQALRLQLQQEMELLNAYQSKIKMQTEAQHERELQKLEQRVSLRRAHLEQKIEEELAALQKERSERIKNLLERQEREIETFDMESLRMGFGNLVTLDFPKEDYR
Aurora kinase C (Homo sapiens), sequence (Q9UQB9 whole entry): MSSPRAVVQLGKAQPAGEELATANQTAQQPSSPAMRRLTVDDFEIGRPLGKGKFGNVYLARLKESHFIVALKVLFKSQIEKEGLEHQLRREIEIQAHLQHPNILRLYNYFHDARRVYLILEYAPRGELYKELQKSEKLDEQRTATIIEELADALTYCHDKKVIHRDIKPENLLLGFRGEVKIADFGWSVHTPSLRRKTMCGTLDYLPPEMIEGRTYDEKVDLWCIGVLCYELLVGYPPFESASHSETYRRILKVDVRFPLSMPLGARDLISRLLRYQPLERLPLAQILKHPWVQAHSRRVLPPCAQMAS

For `N=C1NC(=O)/C(=C\c2ccc(-c3cccc([N+](=O)[O-])c3)o2)S1`, the Activity in test [1] came to 95%; in test [2], 95%; in [3] it was 98%; in test [4], 66%; in [5] it was 92%; in test [6], 100%. The Activity in test [7] turned out to be 93%; in test [8] it was 81%; in test [9] it was 92%; in test [10] it was 74%; in test [11] it was 106%; in [12], 97%. Further, the Activity in test [13] was determined as 110%; in [14], 107%; in test [15], 108%; in test [16], 57%; in [17], 94%; in [18], 102%. The Activity in test [19] stood at 92%; in test [20] it was 114%; in [21], 109%.
Turning to `C=CCOC(=O)c1cc(-c2ccc(/C=C3/NC(=S)NC3=O)o2)ccc1Cl`, the Activity in test [1] was found to be 98%; in [2], 87%; in test [3], 92%; in test [4], 62%; in test [5] it was 118%; in test [6] it was 96%. In addition, the Activity came to 105% in test [7]; 87% in test [8]; 100% in test [9]; 68% in test [10]; 93% in [11]; 89% in test [12]. Besides, the Activity in [13] turned out to be 100%; in test [14] it was 95%; in test [15] it was 98%; in [16] it was 59%; in [17] it was 110%; in test [18], 99%. Moreover, the figures for the Activity in [19], in [20] and in [21] were 103%, 104% and 104%, respectively.

The values above are taken from ChEMBL document CHEMBL4334438, “Discovery of novel glycogen synthase kinase-3α inhibitors: Structure-based virtual screening, preliminary SAR and biological evaluation for treatment of acute myeloid leukemia” (Eur J Med Chem, 2019).
